± gives the expanded uncertainty stated by the source.
Test: cn = amount concentration of the nth substance listed, in mol/dm3
Conditions: 298.15 K, 101 kPa, Liquid, Direct current cell with electrodes

CCCCCCCCn1cc[n+](C)c1.O=S(=O)([N-]S(=O)(=O)C(F)(F)F)C(F)(F)F + ClCCl
Conditions	molar conductivity [S·m2/mol]
c1 = 1.807e-05	0.005919 ± 2.4e-05
c1 = 4.306e-05	0.004426 ± 1.8e-05
c1 = 7.895e-05	0.003536 ± 1.4e-05
c1 = 0.0001156	0.003048 ± 1.2e-05
c1 = 0.0001516	0.002738 ± 1.1e-05
c1 = 0.0001934	0.002482 ± 9.9e-06
c1 = 0.0002361	0.002291 ± 9.2e-06
c1 = 0.0002758	0.002153 ± 8.6e-06
c1 = 0.000322	0.002022 ± 8.1e-06
c1 = 0.000369	0.001913 ± 7.7e-06

CCCCCC[n+]1ccn(C)c1.O=S(=O)([N-]S(=O)(=O)C(F)(F)F)C(F)(F)F + ClCCl
Conditions	molar conductivity [S·m2/mol]
c1 = 3.872e-05	0.004826 ± 1.9e-05
c1 = 7.796e-05	0.003727 ± 1.5e-05
c1 = 0.0001134	0.003224 ± 1.3e-05
c1 = 0.0001471	0.002907 ± 1.2e-05
c1 = 0.0001812	0.002674 ± 1.1e-05
c1 = 0.000212	0.00251 ± 1e-05
c1 = 0.0002454	0.002365 ± 9.5e-06
c1 = 0.0002746	0.002261 ± 9e-06
c1 = 0.0003046	0.002169 ± 8.7e-06
c1 = 0.0003313	0.002097 ± 8.4e-06

CCCC[n+]1ccn(C)c1.O=S(=O)([N-]S(=O)(=O)C(F)(F)F)C(F)(F)F + ClCCl
Conditions	molar conductivity [S·m2/mol]
c1 = 3.993e-05	0.005031 ± 2e-05
c1 = 7.416e-05	0.004 ± 1.6e-05
c1 = 0.0001094	0.00344 ± 1.4e-05
c1 = 0.0001439	0.003085 ± 1.2e-05
c1 = 0.0001819	0.002807 ± 1.1e-05
c1 = 0.0002096	0.002651 ± 1.1e-05
c1 = 0.0002378	0.002519 ± 1e-05
c1 = 0.0002686	0.002394 ± 9.6e-06
c1 = 0.000298	0.002296 ± 9.2e-06
c1 = 0.0003273	0.002211 ± 8.9e-06

CCCCn1cc[n+](C)c1C.O=S(=O)([N-]S(=O)(=O)C(F)(F)F)C(F)(F)F + ClCCl
Conditions	molar conductivity [S·m2/mol]
c1 = 1.989e-05	0.008834 ± 3.5e-05
c1 = 6.027e-05	0.006684 ± 2.7e-05
c1 = 9.148e-05	0.005885 ± 2.4e-05
c1 = 0.000124	0.005336 ± 2.1e-05
c1 = 0.0001564	0.004935 ± 2e-05
c1 = 0.0001888	0.004628 ± 1.8e-05
c1 = 0.0002366	0.004278 ± 1.7e-05
c1 = 0.0002859	0.004001 ± 1.6e-05
c1 = 0.0003299	0.003802 ± 1.5e-05
c1 = 0.0003742	0.003634 ± 1.5e-05

CCCCn1cc[n+](C)c1C.F[P-](F)(F)(F)(F)F [1-butyl-2,3-dimethylimidazolium hexafluorophosphate] + ClCCl
Conditions	molar conductivity [S·m2/mol]
c1 = 4.824e-05	0.006815 ± 2.7e-05
c1 = 9.247e-05	0.00553 ± 2.2e-05
c1 = 0.0001694	0.004468 ± 1.8e-05
c1 = 0.0002351	0.003966 ± 1.6e-05
c1 = 0.0003147	0.003557 ± 1.4e-05
c1 = 0.0003984	0.003254 ± 1.3e-05
c1 = 0.0004826	0.003028 ± 1.2e-05
c1 = 0.0005864	0.002809 ± 1.1e-05
c1 = 0.0007039	0.002623 ± 1e-05
c1 = 0.0008092	0.002481 ± 9.9e-06

CCCCn1cc[n+](C)c1C.F[B-](F)(F)F [1-butyl-2,3-dimethylimidazolium tetrafluoroborate] + ClCCl
Conditions	molar conductivity [S·m2/mol]
c1 = 4.614e-05	0.006049 ± 2.4e-05
c1 = 9.614e-05	0.0047 ± 1.9e-05
c1 = 0.0001552	0.003942 ± 1.6e-05
c1 = 0.0002185	0.003459 ± 1.4e-05
c1 = 0.0002763	0.003161 ± 1.3e-05
c1 = 0.0003472	0.002891 ± 1.2e-05
c1 = 0.0004196	0.002684 ± 1.1e-05
c1 = 0.0005021	0.002502 ± 1e-05
c1 = 0.0005985	0.002336 ± 9.4e-06
c1 = 0.0006827	0.00222 ± 8.9e-06

CCCCn1cc[n+](C)c1.F[P-](F)(F)(F)(F)F [1-butyl-3-methylimidazolium hexafluorophosphate] + ClCCl
Conditions	molar conductivity [S·m2/mol]
c1 = 6.999e-05	0.003807 ± 1.5e-05
c1 = 0.0001329	0.002948 ± 1.2e-05
c1 = 0.0001743	0.002637 ± 1.1e-05
c1 = 0.0002133	0.002425 ± 9.7e-06
c1 = 0.0002543	0.002259 ± 9e-06
c1 = 0.0003123	0.002073 ± 8.3e-06
c1 = 0.0003665	0.001941 ± 7.8e-06
c1 = 0.0004379	0.001804 ± 7.2e-06
c1 = 0.0005447	0.001647 ± 6.6e-06
c1 = 0.0006393	0.001541 ± 6.2e-06

CCCCn1cc[n+](C)c1.F[B-](F)(F)F [1-butyl-3-methylimidazolium tetrafluoroborate] + ClCCl
Conditions	molar conductivity [S·m2/mol]
c1 = 4.455e-05	0.003701 ± 1.5e-05
c1 = 0.0001304	0.002353 ± 9.4e-06
c1 = 0.0002072	0.001927 ± 7.7e-06
c1 = 0.0002805	0.001689 ± 6.8e-06
c1 = 0.0003592	0.00152 ± 6.1e-06
c1 = 0.0004262	0.001412 ± 5.7e-06
c1 = 0.0005183	0.001299 ± 5.2e-06
c1 = 0.000625	0.0012 ± 4.8e-06
c1 = 0.0007268	0.001127 ± 4.5e-06
c1 = 0.0008458	0.001058 ± 4.2e-06

CCCCCCn1cc[n+](C)c1.F[P-](F)(F)(F)(F)F [1-hexyl-3-methylimidazolium hexafluorophosphate] + ClCCl
Conditions	molar conductivity [S·m2/mol]
c1 = 2.071e-05	0.005749 ± 2.3e-05
c1 = 5.447e-05	0.004058 ± 1.6e-05
c1 = 8.254e-05	0.003448 ± 1.4e-05
c1 = 0.0001144	0.003025 ± 1.2e-05
c1 = 0.000155	0.002673 ± 1.1e-05
c1 = 0.0002089	0.002363 ± 9.5e-06
c1 = 0.0002627	0.002148 ± 8.6e-06
c1 = 0.0003123	0.001996 ± 8e-06
c1 = 0.0003903	0.001821 ± 7.3e-06
c1 = 0.0004551	0.00171 ± 6.8e-06

CCCCCCn1cc[n+](C)c1.F[B-](F)(F)F [1-hexyl-3-methylimidazolium tetrafluoroborate] + ClCCl
Conditions	molar conductivity [S·m2/mol]
c1 = 5.56e-05	0.003176 ± 1.3e-05
c1 = 0.000168	0.001993 ± 8e-06
c1 = 0.000301	0.001551 ± 6.2e-06
c1 = 0.0004416	0.001315 ± 5.3e-06
c1 = 0.0005288	0.001218 ± 4.9e-06
c1 = 0.0006627	0.001107 ± 4.4e-06
c1 = 0.0007566	0.001048 ± 4.2e-06
c1 = 0.0009189	0.0009669 ± 3.9e-06
c1 = 0.001094	0.0009009 ± 3.9e-06
c1 = 0.001243	0.000856 ± 3.6e-06

CCCCCCCC[n+]1ccn(C)c1.F[B-](F)(F)F [1-methyl-3-octylimidazolium tetrafluoroborate] + ClCCl
Conditions	molar conductivity [S·m2/mol]
c1 = 7.212e-05	0.002781 ± 1.1e-05
c1 = 0.0001299	0.002171 ± 8.7e-06
c1 = 0.000219	0.001735 ± 6.9e-06
c1 = 0.0002957	0.001524 ± 6.1e-06
c1 = 0.0003827	0.001364 ± 5.5e-06
c1 = 0.0004665	0.001253 ± 5e-06
c1 = 0.0005719	0.001149 ± 4.6e-06
c1 = 0.0006901	0.001061 ± 4.2e-06
c1 = 0.0008223	0.000986 ± 3.9e-06
c1 = 0.0009584	0.0009257 ± 3.7e-06

CCCCCCCC[n+]1ccn(C)c1.F[P-](F)(F)(F)(F)F [1-octyl-3-methylimidazolium hexafluorophosphate] + ClCCl
Conditions	molar conductivity [S·m2/mol]
c1 = 2.186e-05	0.005349 ± 2.1e-05
c1 = 5.202e-05	0.003925 ± 1.6e-05
c1 = 8.128e-05	0.003298 ± 1.3e-05
c1 = 0.0001312	0.002717 ± 1.1e-05
c1 = 0.0001741	0.00242 ± 9.7e-06
c1 = 0.000228	0.002164 ± 8.7e-06
c1 = 0.0002847	0.001973 ± 7.9e-06
c1 = 0.00035	0.00181 ± 7.2e-06
c1 = 0.0004112	0.001693 ± 6.8e-06
c1 = 0.000468	0.001605 ± 6.4e-06

CCCC[N+](CCCC)(CCCC)CCCC.O=S(=O)([N-]S(=O)(=O)C(F)(F)F)C(F)(F)F [tetrabutylammonium bis[(trifluoromethyl)sulfonyl]imide] + ClCCl
Conditions	molar conductivity [S·m2/mol]
c1 = 3.138e-05	0.007892 ± 3.2e-05
c1 = 6.11e-05	0.006903 ± 2.8e-05
c1 = 0.0001374	0.005603 ± 2.2e-05
c1 = 0.0001725	0.00525 ± 2.1e-05
c1 = 0.0002161	0.00489 ± 2e-05
c1 = 0.0002632	0.004603 ± 1.8e-05
c1 = 0.0003161	0.004342 ± 1.7e-05
c1 = 0.0003672	0.004133 ± 1.7e-05
c1 = 0.0004141	0.003988 ± 1.6e-05

CC[N+](CC)(CC)CC.O=S(=O)([N-]S(=O)(=O)C(F)(F)F)C(F)(F)F [tetraethylammonium bis[(trifluoromethyl)sulfonyl]imide] + ClCCl
Conditions	molar conductivity [S·m2/mol]
c1 = 2.423e-05	0.009105 ± 3.6e-05
c1 = 5.571e-05	0.007427 ± 3e-05
c1 = 9.604e-05	0.006311 ± 2.5e-05
c1 = 0.0001485	0.005431 ± 2.2e-05
c1 = 0.0001889	0.005043 ± 2e-05
c1 = 0.0002419	0.004629 ± 1.8e-05
c1 = 0.0002877	0.004339 ± 1.7e-05
c1 = 0.0004028	0.003882 ± 1.6e-05
c1 = 0.0004632	0.003716 ± 1.5e-05

CC[N+](CC)(CC)CC.F[P-](F)(F)(F)(F)F [tetraethylammonium hexafluorophosphate] + ClCCl
Conditions	molar conductivity [S·m2/mol]
c1 = 2.991e-05	0.008681 ± 3.5e-05
c1 = 7.038e-05	0.00678 ± 2.7e-05
c1 = 0.0001289	0.005542 ± 2.2e-05
c1 = 0.0001812	0.004911 ± 2e-05
c1 = 0.0002384	0.004448 ± 1.8e-05
c1 = 0.0002993	0.00409 ± 1.6e-05
c1 = 0.0003669	0.003794 ± 1.5e-05
c1 = 0.0004231	0.003599 ± 1.4e-05
c1 = 0.000508	0.003365 ± 1.3e-05
c1 = 0.0006057	0.003153 ± 1.3e-05

CC[N+](CC)(CC)CC.F[B-](F)(F)F [tetraethylammonium tetrafluoroborate] + ClCCl
Conditions	molar conductivity [S·m2/mol]
c1 = 5.65e-05	0.006094 ± 2.4e-05
c1 = 0.000125	0.004646 ± 1.9e-05
c1 = 0.0002055	0.003888 ± 1.6e-05
c1 = 0.0002819	0.003459 ± 1.4e-05
c1 = 0.0003766	0.003101 ± 1.2e-05
c1 = 0.0004713	0.002847 ± 1.1e-05
c1 = 0.0005736	0.002643 ± 1.1e-05
c1 = 0.0006991	0.00245 ± 9.8e-06
c1 = 0.0007981	0.00233 ± 9.3e-06
c1 = 0.0008975	0.002227 ± 8.9e-06

C[N+](C)(C)C.O=S(=O)([N-]S(=O)(=O)C(F)(F)F)C(F)(F)F [tetramethylammonium bis[(trifluoromethyl)sulfonyl]imide] + ClCCl
Conditions	molar conductivity [S·m2/mol]
c1 = 1.807e-05	0.006904 ± 2.8e-05
c1 = 4.669e-05	0.005019 ± 2e-05
c1 = 8.293e-05	0.004043 ± 1.6e-05
c1 = 0.0001225	0.003465 ± 1.4e-05
c1 = 0.0001669	0.003057 ± 1.2e-05
c1 = 0.000209	0.002792 ± 1.1e-05
c1 = 0.0002676	0.002521 ± 1e-05
c1 = 0.0003329	0.002305 ± 9.2e-06
c1 = 0.0004062	0.002123 ± 8.5e-06
c1 = 0.0004962	0.001957 ± 7.8e-06
